Patent publication US20230279233A1, “ATROROSINS AS FOOD COLORS” (Chromologics ApS, priority 2020, published 2023)
“And” between values parts separate entries of the source, which are not always exact repeats. Equal values may be shown once. Read-outs that look alike come from different tables or passages of the source.

Legend:
[1] = pH stability in McIlvaine buffer pH 2.2-7.2, absorption maxima by spectrophotometer; assay type: physicochemical
Experimental: In comparison to the pH data for Atrorosin-E of Table 1, the absorption spectrum of carminic acid is determined as above. Its absorption maxima are 495 nm, 525 nm, 565 nm. The pH stability data for carminic acid is shown below in Table 2: […]

TA 98 = assay: mini-Ames (AMES MPF) genotoxicity; assay type: cell-based
Experimental: Resulting powder from example 2 was sent to Cyprotox to asses for genotoxicity in a mini-Ames experiment. 43.2 mg of atrorosin was sent to Cyprotox. Mini-Ames test were conducted under the guidelines of OECD.
In comparison to the atrorosin tested above, similar 46.4 mg of carminic acid was also sent to Cyprotox to assess for genotoxicity.

[2] = Pharmacokinetic profile in rats, IV and PO; assay type: in vivo; settings: rat, IV 1 mg/kg; for Cmax: read-out: C0/Cmax
Experimental: Resulting powder from example 2 was sent to Evotec to asses for the pharmacokinetic profile of atrorosin. 6 rats were used, 3 rats for IV injection of atrorosin and 3 rats for PO. The rats were injected or given through mouth gauge 2 mg/kg, and blood samples were taken at regular intervals.
In comparison to example 10, similar carminic acid was also sent to Evotec to assess the pharmacokinetic profile.

[3] = pH stability in McIlvaine buffer pH 2.2-7.2, absorption maxima by spectrophotometer; assay type: physicochemical; remark: listed apart in the source
[4] = Pharmacokinetic profile in rats, IV and PO; assay type: in vivo; settings: rat, IV 1 mg/kg
[5] = background, literature; cited from earlier work
[6] = Temperature stability at 60° C. and 80° C. in McIlvaine buffer pH 5, absorption maxima
Experimental: Buffer and atrorosin was mixed for 5 minutes before the solutions were subjected heating in an incubator at 60° C. and 80° C. to colorimetric analysis using spectrophotometer. The absorption maxima at 425 nm and 490 nm were determined in a microtiter plate with a 0.45 cm cell length with buffer as blank. In comparison to the data in Table 3, the absorption spectrum of betanin is determined as above. […] In comparison to Table 5, the absorption spectrum of betanin is determined as above.

With `Cc1c(C(=O)O)c(O)cc2c1C(=O)c1c(O)c([C@@H]3O[C@H](CO)[C@@H](O)[C@H](O)[C@H]3O)c(O)c(O)c1C2=O` [carminic acid, reference compound] the “Absorption at 495 nm” value ([1]; pH 2.2) was 0.859, the “Absorption at 525 nm” value ([1]; pH 2.2) was 0.88 and the “Absorption at 495 nm” value ([1]; pH 3.5) was 1.289. For the same compound, the “Absorption at 525 nm” value ([1]; pH 3.5) was 1.404, the “Absorption at 495 nm” value ([1]; pH 5) was 1.561 and the “Absorption at 525 nm” value ([1]; pH 7.2) was 2.171. The “Absorption at 565 nm” value ([1]; pH 7.2) was 2.23, the “Fold increase (over baseline)” value (TA 98; TA 98 +S9, 62.5 μg/ml) was 0.42 and the “mean # pos. Wells” value (TA 98; TA 98 +S9, 62.5 μg/ml) was 1.00. The “Fold increase (over baseline)” value (TA 98; TA 98 +S9, 125 μg/ml) was 0.28, the “mean # pos. Wells” value (TA 98; TA 98 +S9, 125 μg/ml) was 0.67 and the “Fold increase (over baseline)” value (TA 98; TA 98 +S9, 250 μg/ml) was 0.14. The “mean # pos. Wells” value (TA 98; TA 98 +S9, 250 μg/ml) was 0.33, the “Fold increase (over baseline)” value (TA 98; TA 98 +S9, 500 μg/ml) was 0.00 and the “mean # pos. Wells” value (TA 98; TA 98 +S9, 500 μg/ml) was 0.00. For the same compound, the “Fold increase (over baseline)” value (TA 98; TA 98 +S9, 1000 μg/ml) was 0.00, the “mean # pos. Wells” value (TA 98; TA 98 +S9, 1000 μg/ml) was 0.00 and the “Fold increase (over baseline)” value (TA 98; TA 98 +S9, 2000 μg/ml) was 0.14. For the same compound, the “mean # pos. Wells” value (TA 98; TA 98 +S9, 2000 μg/ml) was 0.33, the “Fold increase (over baseline)” value (TA 98; TA 98 −S9, 62.5 μg/ml) was 0.25 and the “mean # pos. Wells” value (TA 98; TA 98 −S9, 62.5 μg/ml) was 0.33. For the same compound, the “Fold increase (over baseline)” value (TA 98; TA 98 −S9, 125 μg/ml) was 0.51, the “mean # pos. Wells” value (TA 98; TA 98 −S9, 125 μg/ml) was 0.67 and the “Fold increase (over baseline)” value (TA 98; TA 98 −S9, 250 μg/ml) was 0.25. For the same compound, the “mean # pos. Wells” value (TA 98; TA 98 −S9, 250 μg/ml) was 0.33, the “Fold increase (over baseline)” value (TA 98; TA 98 −S9, 500 μg/ml) was 0.25 and the “mean # pos. Wells” value (TA 98; TA 98 −S9, 500 μg/ml) was 0.33. The “Fold increase (over baseline)” value (TA 98; TA 98 −S9, 1000 μg/ml) was 0.00, the “mean # pos. Wells” value (TA 98; TA 98 −S9, 1000 μg/ml) was 0.00 and the “Fold increase (over baseline)” value (TA 98; TA 98 −S9, 2000 μg/ml) was 0.00. The “mean # pos. Wells” value (TA 98; TA 98 −S9, 2000 μg/ml) was 0.00, the “genotoxic effects (in words)” value (TA 98; mini-Ames study) was “do not exert any genotoxic effects” and the C0/Cmax ([2]; Mean) was 8213 ng/mL. The Clast ([2]; Mean) was 13.4 ng/mL, the MRT ([2]; Mean) was 3.5 h and the Vdss ([2]; Mean) was 0.3 L/kg. For the same compound, the t½ ([2]; Mean) was 3.5 ± 0.2 h, the Cmax ([2]; Mean) was 16.7 µM and the AUCinf ([2]; individual rats 1-3, 1 mg/kg) was 11497 ng · hr/mL and 12597 ng · hr/mL and 13408 ng · hr/mL and 23350 nM · hr and 25583 nM · hr and 27230 nM · hr. For the same compound, the C0/Cmax ([2]; individual rats 1-3, 1 mg/kg) was 7095 ng/mL and 6542 ng/mL and 11003 ng/mL, the CL/CL_F ([2]; individual rats 1-3, 1 mg/kg) was 1.4 mL/min/kg and 1.3 mL/min/kg and 1.2 mL/min/kg and the Clast ([2]; individual rats 1-3, 1 mg/kg) was 12.3 ng/mL and 12.7 ng/mL and 15.3 ng/mL. The MRT ([2]; individual rats 1-3, 1 mg/kg) was 3.2 h and 3.3 h and 3.9 h, the t½ ([2]; individual rats 1-3, 1 mg/kg) was 3.7 h and 3.4 h (2×) and the Cmax ([2]; individual rats 1-3, 1 mg/kg) was 14.4 µM and 13.3 µM and 22.3 µM. For the same compound, the “Absorption at 565 nm” value ([3]; pH 2.2) was 0.771, the “Absorption at 565 nm” value ([3]; pH 3.5) was 1.365 and the “Absorption at 525 nm” value ([3]; pH 5) was 1.834. The “Absorption at 565 nm” value ([3]; pH 5) was 1.852, the “Absorption at 495 nm” value ([3]; pH 7.2) was 1.625 and the “CL/CL_F (plasma clearance)” value ([4]; Mean) was 1.3 ± 0.1 mL/min/kg. For the same compound, the Tlast ([4]; individual rats 1-3) was 24 h, the Vdss ([4]; individual rats 1-3) was 0.3 L/kg and the AUC0-t ([4]; individual rats 1-3, 1 mg/kg) was 11431 ng · hr/mL and 12535 ng · hr/mL and 13332 ng · hr/mL and 23216 nM · hr and 25457 nM · hr and 27076 nM · hr. The “temperature stability (in words)” value [5] was “good temperature stability”.

For `O=C(O)C1=C/C(=C/C=[N+]2/c3cc(O)c(OC4OC(CO)[C@@H](O)C(O)C4O)cc3CC2C(=O)[O-])CC(C(=O)O)N1` (stereo in doubt) [betanin, reference compound], the “heat stability (in words)” value ([6]; 60° C. over 24 hours) was “degrades significantly”, the “Absorption at 530 nm” value ([6]; 60° C., 1 H) was 0.26 and the “Absorption at 530 nm” value ([6]; 60° C., 2 H) was 0.2. The “Absorption at 530 nm” value ([6]; 60° C., 3 H) was 0.17, the “Absorption at 530 nm” value ([6]; 60° C., 24 H) was 0.05 and the “Absorption at 530 nm” value ([6]; 60° C., T0: Start) was 0.29. For the same compound, the “heat stability (in words)” value ([6]; 80° C. over 3 hours) was “degrades significantly”, the “Absorption at 530 nm” value ([6]; 80° C., 1 H) was 0.07 and the “Absorption at 530 nm” value ([6]; 80° C., 2 H) was 0.05. For the same compound, the “Absorption at 530 nm” value ([6]; 80° C., 3 H) was 0.03, the “Absorption at 530 nm” value ([6]; 80° C., 15 min) was 0.19 and the “Absorption at 530 nm” value ([6]; 80° C., T0: Start) was 0.28. The “temperature stability (in words)” value [5] was “lack of stability over 40 °C”.
